The source of these data is US20150087723A1, “MICROBIAL COMPOSITION” (Rohm and Haas Company, priority 2011, published 2015).

Values joined by “and” are separate entries in the source; they are usually repeats but may differ in a detail not shown here. Equal values may be shown once. Read-outs that look alike come from different tables or passages of the source.

Format in all cases: cell-based
The subject of assay [1] is Escherichia coli (10536 strain). The assay can be described thus: Antimicrobial efficacy in water, 15 seconds contact, mean bacterial survival NMBS by colony count. As to the method: An overnight culture of Escherichia coli (10536 strain) was prepared in 50 ml total volume of TSB broth, grown for ca. 18 hrs at 37° C. and shaken at 150 rpm. 1 ml of this overnight E. coli culture was transferred to 50 ml of fresh TSB broth and incubated at 37° C. at 150 rpm for ca. 4 hours. […] This bacterial stock was used for assaying against antimicrobial actives (in triplicate).
The following assay describes the testing of 8 materials using 6 dilutions across half of a 96-well micro litre plate (MTP). Using this approach it is possible to assay 16 actives (without replicates) with, one full dilution plate, replicating this set up in two halves of the plate columns, 1-6 and 7-12.
IM solutions of the test actives were prepared in dimethylsulphoxide (DMSO).
Aliquots (270 μl) of the materials at 1.11 times the final concentration were dispensed into the wells of the MTP along one column (A1-H1). This MTP was labeled as the “Screening plate”.
In another MTP, labeled as the “Dilution plate”, 270 μl of D/E neutralising solution from DIFCO Composition was added to column 1. The composition of the neutralising solution was as follows: pancreatic digest of casein, 5.0 g/L; Yeast Extract, 2.5 g/L; Dextrose, 10 g/L, sodium thioglycollate, 1.0 g/L, sodium thiosulphate, 6.0 g/L; sodium bisulphite, 2.5 g/L; Polysorbate 80, 5.0 g/L; lecithin 7.0 g/L; bromocresol purple, 0.02 g/L with a pH is the range 7.6±0.2.
270 μl of tryptone diluent solution was added to all the remaining wells of the Dilution MTP (columns 2-6).
Bacterial stock (30 μl) was then added to the prepared 270 μl of the solution of actives in the Screening Plate and mixed, using a multichannel pipette with 8 tips to aspirate and dispense the same volume of bacterial stock in parallel to 8 wells in rows A-H. After a contact time of 15 seconds, the mixtures were quenched by transferring 30 μl volumes of the mixtures into the 270 μl D/E neutralising solution in the prepared dilution plate, using aspiration to mix. After exactly 5 minutes in the D/E neutralising solution, 30 μl volumes were transferred from column 1 to column 2 of the Dilution MTP and mixed, before transferring further 30 μl volumes from column 2 into column 3. This process was repeated serially diluting the bacteria across the plate to column 6.
30 μl volumes from each well in the Dilution MTP were transferred onto pre-labeled segment of Tryptone Soya Agar (TSA) plates starting from the lowest bacterial concentration (highest dilution, column 6) to the highest bacterial concentration (column 1). The TSA plates were allowed to stand for ca. 2 hours so that the 30 μl inocula spots could dry and the plates were then inverted and incubated overnight at 37° C. before enumerating the bacterial colonies at the labeled dilutions to determine the effects of the actives on bacterial growth.
Mean bacterial survival numbers NMBS (expressed in Log CFU/ml) are obtained by first determining the segment of the TSA plate where the number of bacterial colonies is countable. From the colony number in this segment, NMBS is calculated by the formula: […]
Here, Ncol is the colony count, and DF is the dilution factor taken from the MTP-well corresponding to the TSA plate segment (i.e. DF may range from 1 for the quench, to 6 for the highest dilution).

For assay [2], the system named is Staphylococcus aureus (10788 strain). The assay is described as above.
The test system of assay [3] is Escherichia coli (E. coli—ATCC #10536). The assay can be described thus: Synergy test: high resolution MBC microtiter plate assay, phosphate buffer containing 35% dipropylene glycol, 15 seconds contact. Particulars: E. coli 10536; for SI (Synergy Index = Qa/QA + Qb/QB): at Qa and Qb, <1 synergy, 1 additivity, >1 antagonism. From the text: One measure of synergy is -the industrially accepted method described by Kull, F. C.; Eisman, P. C.; Sylwestrowicz, H. D. and Mayer, R. L., in Applied Microbiology 9:538-541 (1961), using the ratio determined by the formula:
Qa/QA+Qb/QB=Synergy Index (“SI”)
wherein: QA=concentration of compound A (first component) in percent, acting alone, which produced an end point (MBC of Compound A). Qa =concentration of compound A in percent, in the mixture, which produced an end point. QB=concentration of compound B (second component) in percent, acting alone, which produced an end point (MBC of Compound B). Qb=concentration of compound B in percent, in the mixture, which produced an end point.
When the sum of Qa/QA and Qb/QB is greater than one, antagonism is indicated. […] The lower the SI, the greater is the synergy shown by that particular mixture. The minimum biocidal concentration (MBC) of a microbicide is the lowest concentration tested under a specific set of conditions that provides complete kill of the tested microorganisms.
Synergy tests were-conducted using standard microtiter plate assays with, phosphate buffer containing 35% dipropylene glycol (DPG). In this method, a wide range of combinations of chemicals was tested by conducting high resolution MBC assays of Component (A) in the presence of various concentrations of Component (B). High resolution MBCs were determined by adding varying amounts of microbicide to one column of a microtiter plate and doing subsequent ten-fold dilutions using an automated liquid handling system to obtain a series of closely spaced endpoints. The MBC plate was inoculated one column at a time with the test microorganism. An aliquot of the inoculated well was transferred at 15 seconds to a plate containing a neutralizing agent (D/E Neutralizing Broth), mixed and held for 5 minutes before being transferred to a growth plate containing trypticase soy broth (TSB). The TSB plate was incubated at 37° C. and read for the presence/absence of growth at 24 hours. The lowest level tested that provided complete kill (as evidenced by no growth in the microtitre plate) of the test organisms in 15 seconds is the minimum biocidal concentration (MBC).
The synergy of the combinations of the present invention was determined against a bacterium, Escherichia coli (E. coli—ATCC #10536), at a concentration of approximately 1×10^8 bacteria per mL. This microorganism is representative of natural contaminants in many consumer and industrial applications.

The test system is the same in assay [4]. The assay can be described thus: Automated assessment of efficacy in model surfactant base (2.85% sodium cocoyl glycinate + 1.85% sodium lauroamphoacetate, pH 10), 15 seconds exposure, OD450/OD590 readout. Particulars: for MBC: Escherichia coli, ATCC10536, 15 s; for No. of replicates showing growth (out of 4) / Δ OD 450 nm = OD450 (time = 16 hours) - OD450 (time zero), Mean / Δ OD 590 nm OD590 (time = 16 hours) - OD590 (time zero), Mean: model surfactant solution. The method, then:
Solutions were prepared such that the concentrations of the surfactant components and test actives were 1.1×x the final desired concentration in order to allow for dilution with the bacterial inoculum in the test. The solutions were manually adjusted to pH 10.0 by drop wise addition of sodium hydroxide solution, as measured with a phi meter at ambient temperature.
Tests were conducted using standard microtiter plate assays using an automated liquid handling system, 270 μl of the surfactant test solution was pipetted into each well of the microtitre plate and 30 μl of the bacterial suspension was then added. After exactly 15 seconds of bacterial exposure, a 30 μl volume of bacterial cells was withdrawn and transferred to 270 μl of D/E quench solution. After 5 minutes in the D/E quench, the optical density (OD) was measured for each plate in turn at two specific wavelengths (450 nm and 590 nm). These provide a dual check of antimicrobial activity, as the OD450 reading is specific for the yellow colour of D/E quench when bacterial growth is observed, whereas OD590 is specific for the initial purple colour of the D/E quench which is retained if no bacterial growth is observed. After the time zero OD measurements, plates were then incubated at 37° C. overnight (16 hours) before repeating the OD measurements. Delta OD values were calculated by subtracting […] the initial value at time zero. Bacterial growth is observed as an increase in OD450 and a decrease in ΔOD590. To identify antibacterially efficacious systems (those preventing appreciable bacterial growth after incubation), the following threshold changes in OD readings have been adopted: if (1), OD450 increases by less than 0.2 absorbance unit on incubation and (2). OD590 decreases by less than 0.35 unit on incubation. Conversely, where OD450 increases by more than 0.2 AU and OD590 decreases by more than 0.35 unit after incubation, corresponding to a colour shift from purple to yellow, the test system allows bacterial growth and is not deemed efficacious. Four replicate measurements in the same plate have been made for each test system. The number of replicate wells showing either bacterial growth or no growth is also readily assessed by eye by following the colour change.
Dose responses for individual components and binary mixtures of actives at a used concentration ratio were generated by sequential dilution of liquors with further surfactant solution to obtain a series of endpoints.
In some selected cases, the combinations were also tested at the weight ratio 1:1.

Where [5] appears, read: in 2.85% sodium cocoyl glycinate + 1.85% sodium lauroamphoacetate solution at pH 10, E. coli, read-out: MBC (% w/v).

As for `CC=Cc1ccccc1O` [2-propenylphenol], the “Log reduction E. coli ATCC 10536” value amounted to 1.27 in assay [1] (component alone at 0.05% w/v) and 1.86 in assay [1] (component alone at 0.1% w/v). The “Log reduction S. aureus ATCC 6538” value in assay [2] (component alone at 0.05% w/v) is listed as −0.18; in assay [2] (component alone at 0.1% w/v), 1.92.

Regarding `CCC(C)c1ccc(O)cc1` (stereo not drawn) [4-sec-butylphenol], the “SI (Synergy Index = Qa/QA + Qb/QB)” value in assay [3] worked out at 1.00. For the same compound, in assay [3] (component alone (Qb = 0), complete kill in 15 seconds), the “Qa: MBC of the first component (A) acting alone (QA)” value is reported as 0.2 weight %. Further, in assay [4] (setting [5]), the MBC is above 2000 µg/mL. Moreover, the “No. of replicates showing growth (out of 4)” value in assay [4] (component alone at 0.125% w/v), in assay [4] (component alone at 0.175% w/v), in assay [4] (component alone at 0.2% w/v) and in assay [4] (component alone at […] w/v) was 4 out of 4 in each case. Further, the “Δ OD 450 nm = OD450 (time = 16 hours) - OD450 (time zero), Mean” value (“Δ OD 450 nm = OD450 (time = 16 hours)” below) in assay [4] (component alone at 0.125% w/v) is −0.56; in assay [4] (component alone at 0.175% w/v), −0.54; in assay [4] (component alone at 0.2% w/v), −0.56; in assay [4] (component alone at […] w/v), −0.53. Besides, the “Δ OD 590 nm OD590 (time = 16 hours) - OD590 (time zero), Mean” value (“Δ OD 590 nm OD590 (time = 16 hours)” below) in assay [4] (component alone at 0.125% w/v) is on record as 0.60; in assay [4] (component alone at 0.175% w/v), 0.59; in assay [4] (component alone at 0.2% w/v), 0.59; in assay [4] (component alone at […] w/v), 0.60.

On to `Cc1ccc(C(C)C)cc1O` [5-isopropyl-2-methylphenol], for which the “SI (Synergy Index = Qa/QA + Qb/QB)” value in assay [3] was 1.00. For the same compound, the MBC in assay [4] (pH 10, read-out: MBC (% w/v)) was above 2000 µg/mL. Further, the “No. of replicates showing growth (out of 4)” value in assay [4] (component alone at 0.1% w/v), in assay [4] (component alone at 0.2% w/v) and in assay [4] (component alone at […] w/v) was 4 out of 4 in each case. Further, the “Δ OD 450 nm = OD450 (time = 16 hours)” value in assay [4] (component alone at 0.1% w/v) and in assay [4] (component alone at 0.2% w/v) was −0.52 throughout. In addition, the “Δ OD 590 nm OD590 (time = 16 hours)” value in assay [4] (component alone at 0.1% w/v) and in assay [4] (component alone at 0.2% w/v) was 0.62 in each case.

In the case of `C/C=C/c1ccccc1O` [(E)-2-(prop-1-enyl)phenol], in assay [3], the “SI (Synergy Index = Qa/QA + Qb/QB)” value was determined as 1.00. Further, the MBC in assay [4] (pH 10, read-out: MBC (% w/v)) is above 2000 µg/mL. Moreover, in assay [4] (component alone at 0.1% w/v), the “No. of replicates showing growth (out of 4)” value is 4 out of 4; the “Δ OD 450 nm = OD450 (time = 16 hours)” value is −0.60; the “Δ OD 590 nm OD590 (time = 16 hours)” value is reported as 0.59. Besides, in assay [4] (component alone at 0.2% w/v), the “No. of replicates showing growth (out of 4)” value was 4 out of 4; the “Δ OD 450 nm = OD450 (time = 16 hours)” value is reported as −0.53; the “Δ OD 590 nm OD590 (time = 16 hours)” value was found to be 0.63. In assay [4] (component alone at […] w/v), the “No. of replicates showing growth (out of 4)” value is given as 4 out of 4; the “Δ OD 450 nm = OD450 (time = 16 hours)” value is on record as −0.57; the “Δ OD 590 nm OD590 (time = 16 hours)” value came to 0.58.

With `CC(C)=CCC/C(C)=C\CO` [cis-3,7-dimethyl-2,6-octadien-1-ol], the “SI (Synergy Index = Qa/QA + Qb/QB)” value in assay [3] is 1.00. The “Qb: MBC of the second component (B) acting alone (QB)” value in assay [3] (component alone (Qa = 0), complete kill in 15 seconds) is 0.25 weight % and 0.3 weight % and 0.5 weight %. For the same compound, the MBC in assay [4] (setting [5]) was above 5000 µg/mL. For the same compound, the “No. of replicates showing growth (out of 4)” value in assay [4] (component alone at 0.2% w/v) is on record as 4 out of 4; in assay [4] (component alone at 0.3% w/v), 4 out of 4; in assay [4] (component alone at 0.4% w/v) it was 4 out of 4; in assay [4] (component alone at 0.5% w/v) it was 2 out of 4. The “Δ OD 450 nm = OD450 (time = 16 hours)” value in assay [4] (component alone at 0.2% w/v) is recorded as −0.53; in assay [4] (component alone at 0.3% w/v), −0.51; in assay [4] (component alone at 0.4% w/v), −0.48; in assay [4] (component alone at 0.5% w/v), −0.14. In addition, the “Δ OD 590 nm OD590 (time = 16 hours)” value is 0.60 in assay [4] (component alone at 0.2% w/v), 0.61 in assay [4] (component alone at 0.3% w/v), 0.62 in assay [4] (component alone at 0.4% w/v) and 0.40 in assay [4] (component alone at 0.5% w/v).
